Reference: US7482379B2, “Propenoyl hydrazides” (priority 2004, dated 2009)

What was measured:
Gingipain K = Gingipain K (Porphyromonas gingivalis, UniProt Q51817); experiment: biochemical; format: biochemical; details: Table 6, legumain specific inhibitors; NI = no inhibition after 20 minutes of incubation
Caspase-2 = biological target: T1, Caspase-2 (Homo sapiens, UniProt P42575); experiment: Caspase-2 progress curve inhibition assay; details: second-order rate constant; Cbz-VDVAD-AFC substrate; Pipes buffer pH 7.2
T1 sequence (P42575 170-333 limits assumed): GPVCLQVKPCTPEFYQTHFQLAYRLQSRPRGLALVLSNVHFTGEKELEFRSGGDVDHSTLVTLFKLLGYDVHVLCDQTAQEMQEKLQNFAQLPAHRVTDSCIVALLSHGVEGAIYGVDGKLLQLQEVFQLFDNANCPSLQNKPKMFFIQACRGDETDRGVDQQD
T1 sequence (P42575 348-452 limits assumed): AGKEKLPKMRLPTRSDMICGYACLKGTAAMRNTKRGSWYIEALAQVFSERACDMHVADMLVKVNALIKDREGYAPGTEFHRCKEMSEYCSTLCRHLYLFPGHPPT
Protocol: Inhibition rates were determined by the progress curve method known in the art. This method is suitable for measuring irreversible inhibition rates with fast inhibitors, where the inhibitor, the substrate and the enzyme are incubated together and the rate of substrate hydrolysis is measured continuously. The rate of substrate hydrolysis in the presence of the inhibitor was monitored for 20 minutes. The progress curve of inhibition, where the product formation approaches an asymptote is described in the equation ln([P∞]−[P])=ln[P∞]−A[I]t where [P] and [P∞] are the product concentrations at t and t=∞ respectively, A is the apparent rate constant in the presence of the substrate. The apparent rate constants were determined from the slopes of plots of ln ([P∞]−[P]) versus time (t) in seconds as previously described, where A=slope/[I].
(§1) For competitive and irreversible inhibition, the apparent rate constant is converted to the second order rate constant k2 by taking into consideration the effect of the substrate concentration on the apparent rate constant. The second order rate constant is described as in the equation: k2=A*(1+[S]/KM)
The concentration of the caspase-3 stock solution was 2 nM in the assay buffer. Assay buffer is a 1:1 mixture of caspase buffer (40 mM Pipes, 200 mM NaCl, 0.2% (w/v) CHAPS, sucrose 20% (w/v)) and 20 mM DTT solution in H2O at pH 7.2. The concentration of the substrate stock solution was 2 mM in DMSO. The enzyme was pre-activated for 10 min at 37° C. in the assay buffer. […] 50 μL of 2 nM enzyme stock solution (final concentration: 1 nM) was added to the mixture after 1 min and reading started immediately for 20 min at 37° C. Inhibition experiments were repeated in duplicate and standard deviations determined.
The inhibitor stock solution concentrations varied from 5×10^−3 M to 1×10^−4 M in DMSO.

Caspase-3 = biological target: T2, Caspase-3 (Homo sapiens, UniProt P42574); experiment: Caspase-3 progress curve inhibition assay; details: for k2 Caspase-3: second-order rate constant, Ac-DEVD-AMC substrate, Pipes buffer pH 7.2
T2 sequence (P42574 29-175 limits assumed): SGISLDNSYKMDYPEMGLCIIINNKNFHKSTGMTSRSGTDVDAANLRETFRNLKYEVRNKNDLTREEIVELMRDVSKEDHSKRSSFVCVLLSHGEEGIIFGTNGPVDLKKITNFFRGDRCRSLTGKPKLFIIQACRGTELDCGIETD
T2 sequence (P42574 176-277 limits assumed): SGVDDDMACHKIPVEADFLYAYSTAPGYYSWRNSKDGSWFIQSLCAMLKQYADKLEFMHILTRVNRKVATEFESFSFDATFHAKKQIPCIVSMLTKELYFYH

Caspase-6 = biological target: T3, Caspase-6 (Homo sapiens, UniProt P55212); experiment: Caspase-6 progress curve inhibition assay; details: second-order rate constant; Ac-DEVD-AMC substrate; Pipes buffer pH 7.2
T3 sequence (P55212 24-179 limits assumed): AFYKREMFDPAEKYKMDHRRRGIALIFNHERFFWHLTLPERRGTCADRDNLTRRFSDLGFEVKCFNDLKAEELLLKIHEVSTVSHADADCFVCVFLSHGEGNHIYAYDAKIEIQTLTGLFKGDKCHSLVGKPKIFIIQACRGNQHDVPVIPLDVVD
T3 sequence (P55212 194-293 limits assumed): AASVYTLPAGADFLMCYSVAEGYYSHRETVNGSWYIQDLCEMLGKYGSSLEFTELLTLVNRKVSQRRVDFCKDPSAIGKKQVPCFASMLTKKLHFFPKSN

Caspase-7 = biological target: T4, Caspase-7 (Homo sapiens, UniProt P55210); experiment: Caspase-7 progress curve inhibition assay; details: second-order rate constant; Ac-DEVD-AMC substrate; Pipes buffer pH 7.2
T4 sequence (P55210 24-198 limits assumed): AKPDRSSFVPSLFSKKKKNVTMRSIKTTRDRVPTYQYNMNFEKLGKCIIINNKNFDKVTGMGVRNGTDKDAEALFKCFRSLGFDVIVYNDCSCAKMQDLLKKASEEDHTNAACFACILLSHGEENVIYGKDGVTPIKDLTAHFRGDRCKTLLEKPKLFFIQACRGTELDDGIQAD
T4 sequence (P55210 207-303 limits assumed): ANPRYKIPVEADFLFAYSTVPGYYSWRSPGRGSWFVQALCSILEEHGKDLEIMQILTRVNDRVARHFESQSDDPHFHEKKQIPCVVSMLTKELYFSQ

Caspase-8 = Caspase-8 (Homo sapiens, UniProt Q14790); experiment: Caspase-8 progress curve inhibition assay; details: second-order rate constant; Ac-DEVD-AMC substrate; Pipes buffer pH 7.2
Caspase-8, sequence (Q14790 217-374 limits assumed): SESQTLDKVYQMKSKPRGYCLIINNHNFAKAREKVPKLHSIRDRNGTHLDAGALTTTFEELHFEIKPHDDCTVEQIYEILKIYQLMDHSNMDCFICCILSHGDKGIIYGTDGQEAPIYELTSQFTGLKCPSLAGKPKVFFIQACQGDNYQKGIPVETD
Caspase-8, sequence (Q14790 385-479 limits assumed): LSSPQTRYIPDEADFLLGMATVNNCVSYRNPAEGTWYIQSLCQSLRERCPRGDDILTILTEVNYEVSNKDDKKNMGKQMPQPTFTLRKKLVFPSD

Caspase-9 = biological target: T5, Caspase-9 (Homo sapiens, UniProt P55211); experiment: Caspase-9 progress curve inhibition assay; details: second-order rate constant; Ac-LEHD-AFC substrate; Hepes buffer pH 7.0 with 0.7 M sodium citrate
T5 sequence (P55211 1-315 limits assumed): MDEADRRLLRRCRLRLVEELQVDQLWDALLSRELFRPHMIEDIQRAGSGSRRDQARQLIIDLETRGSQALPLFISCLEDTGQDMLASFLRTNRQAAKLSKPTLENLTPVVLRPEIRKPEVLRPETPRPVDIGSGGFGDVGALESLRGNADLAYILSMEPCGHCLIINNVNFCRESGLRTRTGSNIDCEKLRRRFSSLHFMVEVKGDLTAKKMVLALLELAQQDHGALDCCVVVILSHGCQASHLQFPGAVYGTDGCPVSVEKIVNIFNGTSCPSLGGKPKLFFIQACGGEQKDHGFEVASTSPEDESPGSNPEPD
T5 sequence (P55211 331-416 limits assumed): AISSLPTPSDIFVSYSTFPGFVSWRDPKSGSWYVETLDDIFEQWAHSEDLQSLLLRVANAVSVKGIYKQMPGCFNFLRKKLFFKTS
Protocol: Caspases-2, -3, -6, -7, -8, -9 and -10 were expressed in E. coli and purified in Guy Salvesen's laboratory at the Burnham Institute, La Jolla, Calif., according to the methods known in the art. Inhibition rates were determined by the progress curve method known in the art. This method is suitable for measuring irreversible inhibition rates with fast inhibitors, where the inhibitor, the substrate and the enzyme are incubated together and the rate of substrate hydrolysis is measured continuously. The rate of substrate hydrolysis in the presence of the inhibitor was monitored for 20 minutes. The progress curve of inhibition, where the product formation approaches an asymptote is described in the equation ln([P∞]−[P])=ln[P∞]−A[I]t where [P] and [P∞] are the product concentrations at t and t=∞ respectively, A is the apparent rate constant in the presence of the substrate. The apparent rate constants were determined from the slopes of plots of ln ([P∞]−[P]) versus time (t) in seconds as previously described, where A=slope/[I].
as §1
Assay buffer is a 1:1 mixture of buffer (200 mM Hepes, 100 mM NaCl, 0.02% (w/v) CHAPS, sucrose 20% (w/v)) and 20 mM DTT solution in H2O at pH 7.0). The assay buffer was supplemented with 0.7 M sodium citrate. The enzyme was pre-activated for 10 min at 37° C. in the assay buffer.

Caspase-10 = biological target: T6, Caspase-10 (Homo sapiens, UniProt Q92851); experiment: Caspase-10 progress curve inhibition assay; details: second-order rate constant; Ac-DEVD-AMC substrate; Hepes/PEG buffer pH 7.0
T6 sequence (Q92851 220-415 limits assumed): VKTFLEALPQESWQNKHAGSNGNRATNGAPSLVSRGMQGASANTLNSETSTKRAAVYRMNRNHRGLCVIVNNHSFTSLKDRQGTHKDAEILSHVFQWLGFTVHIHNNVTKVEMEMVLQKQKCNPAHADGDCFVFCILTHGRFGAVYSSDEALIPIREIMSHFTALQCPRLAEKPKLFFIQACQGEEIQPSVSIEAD
T6 sequence (Q92851 416-521 limits assumed): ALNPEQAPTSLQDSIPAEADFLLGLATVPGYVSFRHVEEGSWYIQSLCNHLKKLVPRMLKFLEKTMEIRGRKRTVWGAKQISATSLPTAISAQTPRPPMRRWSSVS
Protocol: Caspase-2, -3, -6, -7, -8, -9 and -10. Caspases-2, -3, -6, -7, -8, -9 and -10 were expressed in E. coli and purified in Guy Salvesen's laboratory at the Burnham Institute, La Jolla, Calif., according to the methods known in the art. Inhibition rates were determined by the progress curve method known in the art. This method is suitable for measuring irreversible inhibition rates with fast inhibitors, where the inhibitor, the substrate and the enzyme are incubated together and the rate of substrate hydrolysis is measured continuously. The rate of substrate hydrolysis in the presence of the inhibitor was monitored for 20 minutes. The progress curve of inhibition, where the product formation approaches an asymptote is described in the equation ln([P∞]−[P])=ln[P∞]−A[I]t where [P] and [P∞] are the product concentrations at t and t=∞ respectively, A is the apparent rate constant in the presence of the substrate. The apparent rate constants were determined from the slopes of plots of ln ([P∞]−[P]) versus time (t) in seconds as previously described, where A=slope/[I].
as §1
Assay buffer is a 1:1 mixture of buffer (200 mM Hepes, 0.2% (w/v) CHAPS, PEG 20% (w/v)) and 20 mM DTT solution in H2O at pH 7.0). The enzyme was pre-activated for 10 min at 25° C. in the assay buffer.

Gingipain K, sequence (Q51817 229-1732 limits assumed): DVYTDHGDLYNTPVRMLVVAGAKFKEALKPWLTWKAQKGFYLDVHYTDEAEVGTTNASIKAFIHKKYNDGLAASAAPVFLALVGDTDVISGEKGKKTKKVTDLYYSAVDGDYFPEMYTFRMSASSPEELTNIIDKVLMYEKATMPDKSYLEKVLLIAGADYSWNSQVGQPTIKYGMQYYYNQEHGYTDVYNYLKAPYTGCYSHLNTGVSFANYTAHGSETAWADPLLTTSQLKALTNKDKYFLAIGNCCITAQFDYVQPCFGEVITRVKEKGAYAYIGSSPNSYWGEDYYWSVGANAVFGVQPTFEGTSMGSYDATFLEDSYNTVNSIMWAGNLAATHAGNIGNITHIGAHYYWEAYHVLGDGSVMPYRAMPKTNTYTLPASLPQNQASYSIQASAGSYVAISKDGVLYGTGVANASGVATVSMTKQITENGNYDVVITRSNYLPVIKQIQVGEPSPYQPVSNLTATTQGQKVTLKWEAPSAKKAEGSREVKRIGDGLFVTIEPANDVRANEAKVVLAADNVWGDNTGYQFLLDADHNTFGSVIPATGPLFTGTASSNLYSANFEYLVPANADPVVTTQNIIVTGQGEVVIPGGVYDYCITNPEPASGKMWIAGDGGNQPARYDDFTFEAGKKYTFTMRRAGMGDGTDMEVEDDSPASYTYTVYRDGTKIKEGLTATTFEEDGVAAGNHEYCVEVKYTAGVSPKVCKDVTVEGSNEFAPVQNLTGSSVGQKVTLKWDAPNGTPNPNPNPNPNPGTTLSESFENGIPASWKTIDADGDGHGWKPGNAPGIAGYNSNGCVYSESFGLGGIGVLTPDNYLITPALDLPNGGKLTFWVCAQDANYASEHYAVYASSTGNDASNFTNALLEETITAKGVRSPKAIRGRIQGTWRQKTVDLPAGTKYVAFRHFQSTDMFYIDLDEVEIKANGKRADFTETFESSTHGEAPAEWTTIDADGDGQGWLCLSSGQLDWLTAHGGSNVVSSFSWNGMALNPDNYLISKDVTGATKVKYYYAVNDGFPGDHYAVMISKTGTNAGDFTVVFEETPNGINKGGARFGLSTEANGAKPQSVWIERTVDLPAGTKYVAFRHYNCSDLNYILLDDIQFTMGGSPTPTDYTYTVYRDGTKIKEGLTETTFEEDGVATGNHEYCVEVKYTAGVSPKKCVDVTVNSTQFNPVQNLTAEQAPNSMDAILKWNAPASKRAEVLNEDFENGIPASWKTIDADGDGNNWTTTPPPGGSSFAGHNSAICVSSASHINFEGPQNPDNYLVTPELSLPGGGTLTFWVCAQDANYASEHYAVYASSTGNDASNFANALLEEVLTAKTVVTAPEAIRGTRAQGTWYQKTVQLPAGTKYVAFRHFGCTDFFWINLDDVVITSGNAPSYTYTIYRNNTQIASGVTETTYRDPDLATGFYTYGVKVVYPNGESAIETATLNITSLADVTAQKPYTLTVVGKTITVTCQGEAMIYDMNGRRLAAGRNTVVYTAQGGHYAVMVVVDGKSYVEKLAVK

Compound	kobs/[I] Gingipain K (Gingipain K) [M⁻¹ s⁻¹]	k2 Caspase-2 (Caspase-2) [M⁻¹ s⁻¹]	k2 Caspase-3 (Caspase-3)	k2 Caspase-6 (Caspase-6)	k2 Caspase-7 (Caspase-7)	k2 Caspase-8 (Caspase-8)	k2 Caspase-9 (Caspase-9)	k2 Caspase-10 (Caspase-10)	selectivity: inhibits caspase-3 more potently than caspase-6 (Caspase-3; ratio of k2 caspase-3 to caspase-6) [fold]	selectivity: inhibits caspase-3 more potently than caspase-8 (Caspase-3; ratio of k2 caspase-3 to caspase-8) [fold]	k2 Caspase-3 (Caspase-3; listed as Cbz-Asp-Glu-Val-AAsp-CH═CH—CON(Bzl)2)
CC(NC(=O)OCc1ccccc1)C(=O)NC(C)C(=O)NN(CC(N)=O)C(=O)C=CC(=O)N(C)c1ccc2ccccc2c1 (centres unmarked)	6										
CCOC(=O)/C=C/C(=O)N(CC(=O)O)NC(=O)[C@@H](NC(=O)[C@H](CCC(=O)O)NC(=O)[C@@H](NC(=O)OCc1ccccc1)C(C)C)C(C)C (relative stereo) [Cbz-Val-Glu-Val-AAsp-CH═CH—COOEt, N^2—(N-Benzyloxycarbonylvalylglutamylvalyl)-N^1-carboxymethyl-N^1-trans-(3-ethoxycarbonylpropenoyl)hydrazine]		115	41,200 M^−1s^−1	83,600 M^−1s^−1	3,650 M^−1s^−1	175,800 M^−1s^−1	340 M⁻¹ s⁻¹	6,600 M^−1s^−1			
CC(C)[C@H](NC(=O)[C@H](CCC(=O)O)NC(=O)[C@H](CC(=O)O)NC(=O)OCc1ccccc1)C(=O)NN(CC(=O)O)C(=O)C=CC(=O)N(Cc1cccc2ccccc12)Cc1cccc2ccccc12		410	5,620,000 M^−1s^−1	29,700 M^−1s^−1	875,000 M^−1s^−1	9,460 M^−1s^−1	150 M⁻¹ s⁻¹	32,500 M^−1s^−1			
CC(C)C[C@H](NC(=O)OCc1ccccc1)C(=O)N[C@@H](CCC(=O)O)C(=O)N[C@H](C(=O)NN(CC(=O)O)C(=O)/C=C/C(=O)N(Cc1ccccc1)Cc1ccccc1)[C@@H](C)O (relative stereo) [Cbz-Leu-Glu-Thr-AAsp-CH═CH—CON(CH2Ph)2, N^2—(N-Benzyloxycarbonylleucylglutamylthreonyl)-N^1-carboxylmethyl-N^1-trans-(3-dibenzylcarbamoylpropenoyl)hydrazine]		110	8,630 M^−1s^−1	14,100 M^−1s^−1	760 M⁻¹ s⁻¹	129,000 M^−1s^−1	1,105 M^−1s^−1	8,080 M^−1s^−1			
CC[C@H](C)[C@H](NC(=O)OCc1ccccc1)C(=O)N[C@@H](CCC(=O)O)C(=O)N[C@H](C(=O)NN(CC(=O)O)C(=O)/C=C/C(=O)N(C)Cc1ccccc1)[C@@H](C)O (relative stereo) [Cbz-Ile-Glu-Thr-AAsp-CH═CH—CON(CH3)CH2Ph, N^1-trans-(3-Benzylmethylcarbamoylpropenoyl)-N^2—(N-benzyloxycarbonylisoleucylglutamylthreonyl)-N^1-carboxylmethylhydrazine]		95	6,000 M^−1s^−1	45,900 M^−1s^−1	390 M⁻¹ s⁻¹	59,700 M^−1s^−1	845 M⁻¹ s⁻¹	8,500 M^−1s^−1			
CC(C)C[C@H](NC(=O)OCc1ccccc1)C(=O)N[C@@H](CCC(=O)O)C(=O)N[C@H](C(=O)NN(CC(=O)O)C(=O)/C=C/C(=O)N(C)CCc1ccccc1)[C@@H](C)O (relative stereo) [N^2—(N-Benzyloxycarbonylleucylglutamylthreonyl)-N^1-carboxylmethyl-N^1-trans-(3-methylphenylethylcarbamoylpropenoyl)hydrazine]		50	2,620 M^−1s^−1	2,550 M^−1s^−1	290 M⁻¹ s⁻¹	65,300 M^−1s^−1	960 M⁻¹ s⁻¹	6,190 M^−1s^−1			
CC(C)[C@H](NC(=O)[C@H](CCC(=O)O)NC(=O)[C@H](CC(=O)O)NC(=O)OCc1ccccc1)C(=O)NN(CC(=O)O)C(=O)/C=C/C(=O)N(Cc1ccccc1)Cc1ccccc1 (relative stereo) [Cbz-Asp-Glu-Val-AAsp-CH═CH—CON(CH2Ph)2, N^2—(N-Benzyloxycarbonylaspartylglutamylvalyl)-N^1-carboxymethyl-N^1-trans-(3-dibenzylcarbamoylpropenoyl)hydrazine]		110		5,100 M^−1s^−1	359,000 M^−1s^−1	8,600 M^−1s^−1	450 M⁻¹ s⁻¹	6,300 M^−1s^−1	588	348	3,000,000 M^−1s^−1
CC(C)[C@H](NC(=O)[C@H](CCC(=O)O)NC(=O)[C@H](CC(=O)O)NC(=O)OCc1ccccc1)C(=O)NN(CC(=O)O)C(=O)/C=C/C(=O)NCc1ccccc1 (relative stereo) [Cbz-Asp-Glu-Val-AAsp-CH═CH—CONHCH2Ph, N^1-trans-(3-Benzylcarbamoylpropenoyl)-N^2—(N-benzyloxycarbonylaspartylglutamylvalyl)-N^1-carboxymethylhydrazine]		130	1,750,000 M^−1s^−1	3,210 M^−1s^−1	249,000 M^−1s^−1	78,235 M^−1s^−1	2,010 M^−1s^−1	19,400 M^−1s^−1			
CC[C@H](C)[C@H](NC(=O)OCc1ccccc1)C(=O)N[C@@H](CCC(=O)O)C(=O)N[C@H](C(=O)NN(CC(=O)O)C(=O)/C=C/C(=O)Nc1ccccc1)[C@@H](C)O (relative stereo) [Cbz-Ile-Glu-Thr-AAsp-CH═CH—CONHPh, N^2—(N-Benzyloxycarbonylisoleucylglutamylthreonyl)-N^1-carboxylmethyl-N^1-trans-(3-phenylcarbamoylpropenoyl)hydrazine]		365	7,030 M^−1s^−1	99,200 M^−1s^−1	920 M⁻¹ s⁻¹	245,000 M^−1s^−1	940 M⁻¹ s⁻¹	9,210 M^−1s^−1			
